Data reported in patent US11827628B2, “Compositions and methods for inhibition of the JAK pathway” (Rigel Pharmaceuticals, Inc., priority 2005, dated 2023).
Where a name gives a salt, the structure may show the parent alone. Read-outs that look alike come from different tables or passages of the source.

Tests used:
Primary human T-cells = test: Primary Human T-Cell Proliferation Assay Stimulated with IL-2 (CellTiter-Glo); type: cell-based; settings: read-out: IC50, Example 42
Procedure, shortened: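 Peripheral blood T-cells pre-activated with anti-CD3/anti-CD28 and IL-2 were washed free of IL-2, then cultured with compound plus IL-2 for 72 hours at 37° C, duplicate wells. Viability read as ATP by CellTiter-Glo luminescence; IC50 reported.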

[1] = system: IL-4 stimulated expression of CD23 in human Ramos B cells (JAK-1 and JAK-3); test: Assay for Ramos B-Cell Line Stimulated with IL-4 (CD23 upregulation, FACS); type: cell-based; settings: read-out: IC50, Example 41
Procedure, shortened: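 Human Ramos B cells (5×10^4 per point, RPMI 5% serum) pre-incubated 1 h at 37 °C with compound or DMSO, then stimulated with IL-4 at 50 units/mL final for 20-24 h. CD23 upregulation measured by anti-CD23-PE staining and flow cytometry; IC50 derived.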

[2] = Homo sapiens, T-cell, primary human T-cell proliferation stimulated with IL-2
[3] = Homo sapiens, Ramos, Ramos B-cell line stimulated with IL-4, CD23 expression by FACS
[4] = primary human T-cells stimulated with IL-2, proliferation
[5] = Ramos B cells stimulated with IL-4, CD23 expression by FACS

IC50 [1, 3] [nM]	Compound	IC50 (Primary human T-cells; [2]) [nM]	other results
45.4	N#CCCc1ccc(Nc2nc(Nc3cccc(S(N)(=O)=O)c3)ncc2F)cc1Cl [III-22, N2-(3-Aminosulfonylphenyl)-N4-[3-chloro-4-(2-cyanoethyl)phenyl]-5-fluoro-2,4-pyrimidinediamine]	76.1	
70	Cc1cnc(Nc2ccc(Cl)c(S(N)(=O)=O)c2)nc1Nc1ccc(CCC#N)cc1 [III-12, N2-(3-Aminosulfonyl-4-chlorophenyl)-N4-[4-(2-cyanoethyl)phenyl]-5-methyl-2,4-pyrimidinediamine]	107	
36.6	N#CCCc1ccc(Nc2nc(Nc3cccc(S(N)(=O)=O)c3)ncc2F)cc1F [III-18, N2-(3-Aminosulfonylphenyl)-N4-[4-(2-cyanoethyl)-3-fluorophenyl]-5-fluoro-2,4-pyrimidinediamine]	136	
141	Cc1ccc(Nc2ncc(F)c(NCCc3ccc(-n4ccnc4)cc3)n2)cc1S(N)(=O)=O [III-88, N2-(3-Aminosulfonyl-4-methylphenyl)-5-fluoro-N4-[4-(1-imidazolyl)phenethyl]-2,4-pyrimidinediamine]	166	
244	Cc1ccc(Nc2ncc(F)c(Nc3cccc(OC4CCN(C)CC4)c3)n2)cc1S(N)(=O)=O [II-2, N2-(3-Aminosulfonyl-4-methylphenyl)-5-fluoro-N4-{3-[(1-methylpiperidin-4-yl)oxy]phenyl}-2,4-pyrimidinediamine]	1520	
104	NS(=O)(=O)c1cccc(Nc2ncc(F)c(NCCc3ccc(-c4ccncc4)cc3)n2)c1 [III-76, N2-(3-Aminosulfonylphenyl)-5-fluoro-N4-[4-(4-pyridinyl)phenethyl]-2,4-pyrimidinediamine]	135	
97.9	NS(=O)(=O)c1ccc(Nc2ncc(F)c(Nc3ccc(Cc4ccncc4)cc3)n2)cc1 [III-71, N2-(4-Aminosulfonylphenyl)-5-fluoro-N4-[4-(4-pyridinylmethyl)phenyl]-2,4-pyrimidinediamine]	368	
56.3	Cc1ccc(Nc2ncc(F)c(Nc3ccc(Oc4cccnc4)cc3)n2)cc1S(N)(=O)=O [II-12, N2-(3-Aminosulfonyl-4-methylphenyl)-5-fluoro-N4-[4-(3-pyridyloxy)phenyl]-2,4-pyrimidinediamine]	409	

The remaining lines, values behind:

Compound	IC50 [1, 3] [nM]	IC50 (Primary human T-cells; [2]) [nM]	other results
Cc1cnc(Nc2ccc(Cl)c(S(N)(=O)=O)c2)nc1Nc1ccc(OCC(=O)N(C)C)c(Cl)c1 [Compound I-141, N2-(3-Aminosulfonyl-4-chlorophenyl)-N4-(3-chloro-4-dimethylaminocarbonylmethoxyphenyl)-5-methyl-2,4-pyrimidinediamine]	162	669	
COc1ccc(Nc2ncc(F)c(Nc3ccc(OCC#N)cc3)n2)cc1S(N)(=O)=O [Compound I-56, N2-(3-Aminosulfonyl-4-methoxyphenyl)-N4-(4-cyanomethoxyphenyl)-5-fluoro-2,4-pyrimidinediamine]	104	262	
NS(=O)(=O)c1cccc(Nc2ncc(F)c(Nc3ccc(Cn4cncn4)cc3)n2)c1 [III-100, N2-(3-Aminosulfonylphenyl)-5-fluoro-N4-{4-[1-(1,2,4-thazolyl)methyl]phenyl}-2,4-pyrimidinediamine]			IC50 (Primary human T-cells; [4]): 197 nM; IC50 [1, 5]: 162 nM
Cc1cc(COc2ccc(Nc3nc(Nc4cccc(S(=O)(=O)NCc5oc(=O)oc5C)c4)ncc3F)cc2)no1 [Compound I-247, N2-{3-[(N-5-Methyl-1,3-dioxolene-2-one-4-yl)methylene]aminosulfonylphenyl}-5-fluoro-N4-[4-(5-methylisoxazol-3-yl)methyleneoxyphenyl]-2,4-pyrimidinediamine]	225	119	
CNC(=O)COc1ccc(Nc2nc(Nc3cccc(S(N)(=O)=O)c3)ncc2C)cc1Cl [Compound I-150, N2-(3-Aminosulfonylphenyl)-N4-(3-chloro-4-methylaminocarbonylmethoxyphenyl)-5-methyl-2,4-pyrimidinediamine]	65.7	68.1	
Cc1cc2ccc(CNc3nc(Nc4cccc(S(N)(=O)=O)c4)ncc3F)cc2[nH]1 [Compound X-3]			IC50 (Primary human T-cells; Homo sapiens, T-cell, primary human T-cells stimulated with IL-2, proliferation): 1090 nM; IC50 ([1]; Homo sapiens, Ramos, Ramos B cells stimulated with IL-4, CD23 expression by FACS): 348 nM
C=CCNC(=O)COc1ccc(Nc2nc(Nc3cccc(S(N)(=O)=O)c3)ncc2F)cc1 [Compound I-158, N4-(4-Allylaminocarbonylmethoxyphenyl)-N2-(3-aminosulfonylphenyl)-5-fluoro-2,4-pyrimidinediamine]	297	445	
COc1ccc(Nc2nc(Nc3cccc(S(=O)(=O)NN4CCC(C)CC4)c3)ncc2F)cc1Cl [VI-9, N4-(3-Chloro-4-methoxyphenyl)-5-fluoro-N2-[3-(4-methylpipendin-1-yl)aminosulfonylphenyl]-2,4-pyrimidinediamine]			IC50 (Primary human T-cells; [4]): 945 nM; IC50 [1, 5]: 53.3 nM
NS(=O)(=O)c1cccc(Nc2ncc(F)c(Nc3ccc(CN4CCOCC4)cc3)n2)c1 [III-103, N2-(3-Aminosulfonylphenyl)-5-fluoro-N4-(4-N-morpholinomethylenephenyl)-2,4-pyrimidinediamine]			IC50 (Primary human T-cells; [4]): 1060 nM; IC50 [1, 5]: 230 nM
C=CCNC(=O)COc1ccc(Nc2nc(Nc3ccc(C)c(S(N)(=O)=O)c3)ncc2F)cc1 [Compound I-159, N4-(4-Allylaminocarbonylmethoxyphenyl)-N2-(3-aminosulfonyl-4-methylphenyl)-5-fluoro-2,4-pyrimidinediamine]	338	539	
Cc1ccc(Nc2ncc(F)c(Nc3ccc(OCC(N)=O)c(F)c3)n2)cc1S(N)(=O)=O [Compound I-102, N4-(4-Aminocarbonylmethoxy-3-fluorophenyl)-N2-(3-aminosulfonyl-4-methylphenyl)-5-fluoro-2,4-pyrimidinediamine]	219	211	
COc1cc(Nc2nc(Nc3ccc(C)c(S(N)(=O)=O)c3)ncc2F)ccc1OCC#N [Compound I-47, N2-(3-Aminosulfonyl-4-methylphenyl)-N4-(4-cyanomethoxy-3-methoxyphenyl)-5-fluoro-2,4-pyrimidinediamine]	120	551	
Cc1ccc(Nc2ncc(F)c(Nc3ccc(OCc4cccnc4)cc3)n2)cc1S(N)(=O)=O [Compound I-178, N2-(3-Aminosulfonyl-4-methylphenyl)-5-fluoro-N4-[4-(3-pyridylmethoxy)phenyl]-2,4-pyrimidinediamine]	23.5	29.3	
Cc1ccc(Nc2ncc(F)c(Nc3cnc4c(c3)OC(C)(C)C(=O)N4CC#N)n2)cc1S(N)(=O)=O [Compound V-14, N2-(3-Aminosulfonyl-4-methylphenyl)-N4-[2,2-dimethyl-3-oxo-4-cyanomethyl-5-pyrid[1,4]oxazin-7-yl]-5-fluoro-2,4-pyrimidinediamine]			IC50 (Primary human T-cells; [4]): 2590 nM; IC50 [1, 5]: 197 nM
Cc1ccc(Nc2ncc(F)c(Nc3ccc(CN4CCOCC4)cc3)n2)cc1S(N)(=O)=O [III-104, N2-(3-Aminosulfonyl-4-methylphenyl)-5-fluoro-N4-(4-N-morpholinomethylenephenyl)-2,4-pyrimidinediamine]			IC50 (Primary human T-cells; [4]): 1190 nM; IC50 [1, 5]: 242 nM
NS(=O)(=O)c1cccc(Nc2ncc(F)c(Nc3ccc(Cc4ccncc4)cc3)n2)c1 [III-129, N2-(3-Aminosulfonylphenyl)-5-fluoro-N4-[4-(4-pyridylmethyl)phenyl]-2,4-pyrimidinediamine Methanesulfonic Acid Salt]			IC50 (Primary human T-cells; [4]): 180 nM; IC50 [1, 5]: 174 nM
CNC(=O)COc1ccc(Nc2nc(Nc3ccc(C)c(S(N)(=O)=O)c3)ncc2C)cc1F [Compound I-156, N2-(3-Aminosulfonyl-4-methylphenyl)-N4-(3-fluoro-4-methylaminocarbonylmethoxyphenyl)-5-methyl-2,4-pyrimidinediamine]	65.5	142	
CNS(=O)(=O)c1cc(Nc2ncc(F)c(Nc3cccc(-c4cnco4)c3)n2)ccc1C [IV-4, 5-Fluoro-N2-[3-(N-methylaminosulfony)-4-methylphenyl]-N4-[3-(1,3-oxazol-5-yl)phenyl]-2,4-pyrimidinediamine]			IC50 (Primary human T-cells; [4]): 303 nM; IC50 [1, 5]: 151 nM
COc1cc(Nc2nc(Nc3ccc(S(N)(=O)=O)cc3)ncc2F)ccc1OCC#N [Compound I-45, N2-(4-Aminosulfonylphenyl)-N4-(4-cyanomethoxy-3-methoxyphenyl)-5-fluoro-2,4-pyrimidinediamine]	104	834	
Cc1cnc(Nc2ccc(S(N)(=O)=O)cc2)nc1Nc1ccc(OCC(=O)N(C)C)c(Cl)c1 [Compound I-134, N2-(4-Aminosulfonylphenyl)-N4-(3-chloro-4-dimethylaminocarbonylmethoxyphenyl)-5-methyl-2,4-pyrimidinediamine]	178	510	
COc1cc(Nc2nc(Nc3cccc(S(N)(=O)=O)c3)ncc2F)ccc1OCC#N [Compound I-46, N2-(3-Aminosulfonylphenyl)-N4-(4-cyanomethoxy-3-methoxyphenyl)-5-fluoro-2,4-pyrimidinediamine]	113	409	
NC(=O)COc1ccc(Nc2nc(Nc3cccc(S(N)(=O)=O)c3)ncc2F)cc1F [Compound I-101, N4-(4-Aminocarbonylmethoxy-3-fluorophenyl)-N2-(3-aminosulfonylphenyl)-5-fluoro-2,4-pyrimidinediamine]	328		
NC(=O)COc1ccc(Nc2nc(Nc3cccc(S(N)(=O)=O)c3)ncc2F)cc1Cl [Compound I-98, N4-(4-Aminocarbonylmethoxy-3-chlorophenyl)-N2-(3-aminosulfonylphenyl)-5-fluoro-2,4-pyrimidinediamine]	295		
